Each block holds one compound with its values, some of them ahead of it. Active and inactive are the calls of the source. The calls are words filed in the database; no cut-off is given here. Peptide text beside a SMILES is read from it. * marks the point of attachment. Cbz = O=C(OCc1ccccc1)*
Legend:
[1] = test system: MV4-11; experiment: Antiproliferative activity against CRBN-deficient human MV4-11 cells assessed as cell growth inhibition incubated for 72 hrs by resazurin dye based fluorescence analysis; type: functional
[2] = test system: MV4-11; experiment: Antiproliferative activity against human MV4-11 cells harboring FLT3-ITD mutation assessed as cell growth inhibition incubated for 72 hrs by resazurin dye based fluorescence analysis; type: functional
[3] = test system: CCRF-CEM; experiment: Antiproliferative activity against human CEM cells assessed as cell growth inhibition incubated for 72 hrs by resazurin dye based fluorescence analysis; type: functional
[4] = test system: MOLM-13; experiment: Antiproliferative activity against human MOLM-13 cells harboring FLT3-ITD mutation assessed as cell growth inhibition incubated for 72 hrs by resazurin dye based fluorescence analysis; type: functional
[5] = target: CDK9/cyclin T1 (Homo sapiens) (UniProt O60563+P50750); experiment: Inhibition of human CDK9/Cyclin T1 assessed as residual activity at 100 nM relative to control; type: protein-complex assay
[6] = test system: THP-1; experiment: Antiproliferative activity against human THP-1 cells assessed as cell growth inhibition incubated for 72 hrs by resazurin dye based fluorescence analysis; type: functional
[7] = test system: Kasumi 1; experiment: Antiproliferative activity against human Kasumi 1 cells assessed as cell growth inhibition incubated for 72 hrs by resazurin dye based fluorescence analysis; type: functional
[8] = test system: HL-60; experiment: Antiproliferative activity against human HL-60 cells assessed as cell growth inhibition incubated for 72 hrs by resazurin dye based fluorescence analysis; type: functional
[9] = test system: U-937; experiment: Antiproliferative activity against human U-937 cells assessed as cell growth inhibition incubated for 72 hrs by resazurin dye based fluorescence analysis; type: functional
[10] = target: Receptor-type tyrosine-protein kinase FLT3 (Homo sapiens) (UniProt P36888); experiment: Inhibition of human FLT3 assessed as residual activity at 100 nM relative to control
[11] = test system: RS4-11; experiment: Antiproliferative activity against human RS4-11 cells assessed as cell growth inhibition incubated for 72 hrs by resazurin dye based fluorescence analysis; type: functional
[12] = target: Receptor-type tyrosine-protein kinase FLT3 (Homo sapiens) (UniProt P36888); experiment: Inhibition of FLT3 signalling pathway in human MV4-11 cells assessed as reduction in ERK1/2 phosphorylation at T202/Y204 residues at 10 uM incubated for 90 mins by immunoblot analysis; type: cell-based
[13] = test system: MV4-11; experiment: Effect on CDK9 protein level in human MV4-11 cells at 10 uM incubated for 90 mins by immunoblot analysis; type: functional, cell-based
[14] = test system: MV4-11; experiment: Effect on FLT3 protein level in human MV4-11 cells at 10 uM incubated for 90 mins by immunoblot analysis; type: functional, cell-based
[15] = target: Receptor-type tyrosine-protein kinase FLT3 (Homo sapiens) (UniProt P36888); experiment: Inhibition of FLT3 signalling pathway in human MV4-11 cells assessed as reduction in STAT5 phosphorylation at Y694 residue at 10 uM incubated for 90 mins by immunoblot analysis; type: cell-based
[16] = target: Receptor-type tyrosine-protein kinase FLT3 (Homo sapiens) (UniProt P36888); experiment: Induction of FLT3 protein degradation in human MV4-11 cells at 0.2 uM incubated for 90 mins by immunoblot analysis; type: cell-based
[17] = target: Cyclin-dependent kinase 9 (Homo sapiens) (UniProt P50750); experiment: Induction of CDK9 protein degradation in human MV4-11 cells at 0.2 uM incubated for 90 mins by immunoblot analysis; type: cell-based
[18] = test system: MV4-11; experiment: Downregulation of Myb gene expression in human MV4-11 cells at 0.1 uM incubated for 4 hrs by qRT-PCR analysis; type: functional, cell-based
[19] = test system: MV4-11; experiment: Upregulation of FLT3 total protein level in human MV4-11 cells harboring FLT3-ITD mutation at 0.1 uM incubated for 16 hrs by immunoblot analysis; type: functional, cell-based
[20] = test system: MV4-11; experiment: Downregulation of Bcl-2 gene expression in human MV4-11 cells at 0.1 uM incubated for 4 hrs by qRT-PCR analysis; type: functional, cell-based
[21] = test system: MV4-11; experiment: Downregulation of Myc gene expression in human MV4-11 cells at 0.1 uM incubated for 4 hrs by qRT-PCR analysis; type: functional, cell-based
[22] = test system: MV4-11; experiment: Upregulation of FLT3 total protein level in CRBN-deficient human MV4-11 cells at 0.1 uM incubated for 16 hrs by immunoblot analysis; type: functional, cell-based
[23] = test system: MV4-11; experiment: Downregulation of MCL-1 gene expression in human MV4-11 cells at 0.1 uM incubated for 4 hrs by qRT-PCR analysis; type: functional, cell-based
[24] = test system: MV4-11; experiment: Downregulation of HOXA9 gene expression in human MV4-11 cells at 0.1 uM incubated for 4 hrs by qRT-PCR analysis; type: functional, cell-based
[25] = test system: MV4-11; experiment: Downregulation of MEISI gene expression in human MV4-11 cells at 0.1 uM incubated for 4 hrs by qRT-PCR analysis; type: functional, cell-based

Receptor-type tyrosine-protein kinase FLT3 (Homo sapiens), sequence (P36888 whole entry): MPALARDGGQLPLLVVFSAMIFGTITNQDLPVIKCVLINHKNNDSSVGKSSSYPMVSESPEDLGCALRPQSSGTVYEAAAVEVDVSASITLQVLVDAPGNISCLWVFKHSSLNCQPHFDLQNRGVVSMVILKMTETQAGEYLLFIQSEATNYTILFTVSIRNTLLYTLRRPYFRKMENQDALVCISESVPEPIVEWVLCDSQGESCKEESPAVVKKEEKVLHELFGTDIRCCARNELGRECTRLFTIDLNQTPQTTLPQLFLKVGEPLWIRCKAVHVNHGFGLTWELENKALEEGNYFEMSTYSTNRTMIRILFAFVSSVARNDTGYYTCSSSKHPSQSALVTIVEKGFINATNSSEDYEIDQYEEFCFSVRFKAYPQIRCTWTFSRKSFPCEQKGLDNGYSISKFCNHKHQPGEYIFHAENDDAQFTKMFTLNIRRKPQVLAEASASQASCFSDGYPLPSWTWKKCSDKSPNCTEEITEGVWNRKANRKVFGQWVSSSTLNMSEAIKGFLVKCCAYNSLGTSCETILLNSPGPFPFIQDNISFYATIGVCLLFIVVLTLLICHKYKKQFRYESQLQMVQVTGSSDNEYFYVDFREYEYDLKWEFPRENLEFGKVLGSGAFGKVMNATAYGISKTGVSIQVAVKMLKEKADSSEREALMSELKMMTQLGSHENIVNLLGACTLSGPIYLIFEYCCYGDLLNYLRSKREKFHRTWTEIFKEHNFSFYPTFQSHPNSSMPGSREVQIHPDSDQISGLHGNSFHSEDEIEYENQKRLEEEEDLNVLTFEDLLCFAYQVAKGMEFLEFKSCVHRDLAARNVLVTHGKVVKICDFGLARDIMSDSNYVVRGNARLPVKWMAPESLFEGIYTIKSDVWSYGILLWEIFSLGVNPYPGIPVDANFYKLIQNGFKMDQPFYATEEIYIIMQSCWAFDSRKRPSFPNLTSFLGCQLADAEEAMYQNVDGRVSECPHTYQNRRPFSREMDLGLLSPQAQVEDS
Cyclin-dependent kinase 9 (Homo sapiens), sequence (P50750 whole entry): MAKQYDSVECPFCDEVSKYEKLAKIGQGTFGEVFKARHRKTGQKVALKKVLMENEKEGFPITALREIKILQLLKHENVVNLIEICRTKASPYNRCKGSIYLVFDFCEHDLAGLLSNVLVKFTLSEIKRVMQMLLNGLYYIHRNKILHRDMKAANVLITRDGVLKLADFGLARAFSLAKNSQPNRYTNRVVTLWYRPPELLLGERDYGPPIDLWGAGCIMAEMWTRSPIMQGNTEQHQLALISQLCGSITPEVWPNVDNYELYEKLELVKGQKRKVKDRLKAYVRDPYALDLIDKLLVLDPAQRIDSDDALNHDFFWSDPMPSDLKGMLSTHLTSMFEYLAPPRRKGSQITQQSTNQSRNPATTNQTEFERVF

Compound: CNC(=O)c1cc(Oc2ccc(NC(=O)Nc3ccc(Cl)c(C(F)(F)F)c3)cc2)ccn1
- Activity [18]: inactive
- Activity [19]: Active
- Activity [20]: inactive
- Activity [21]: inactive
- Activity [22]: Active
- Activity [23]: inactive
- Activity [24]: inactive
- Activity [25]: inactive

Compound: CC(C)(C)c1cc(NC(=O)Nc2ccc(-c3cn4c(n3)sc3cc(OCCN5CCOCC5)ccc34)cc2)no1
- Activity [18]: inactive
- Activity [19]: Active
- Activity [20]: inactive
- Activity [21]: inactive
- Activity [22]: Active
- Activity [23]: inactive
- Activity [24]: inactive
- Activity [25]: inactive

Now from value to compound, other results behind:

- GI50 [1]: 8 nM
- GI50 [2]: 9 nM
- GI50 [3]: 1280 nM
- GI50 [4]: 8 nM
- Activity [5]: 3%
- GI50 [6]: 681 nM
- GI50 [8]: 1520 nM
- GI50 [9]: 695 nM
- Activity [10]: 2%
- GI50 [11]: 295 nM
Compound: CCN1CCN(c2ccc(Nc3nc(NC4CCC(N)CC4)nc4c3ncn4C3CCCC3)cc2)CC1 (stereo not drawn)
- GI50 [7]: 534 nM

- inhibition [12]: inactive
- inhibition [15]: inactive
Compound: O=C1CCC(N2C(=O)c3cccc(O)c3C2=O)C(=O)N1 (stereo not drawn)
- Activity [13]: inactive
- Activity [14]: inactive

- Activity [16]: inactive
- Activity [17]: inactive
Compound: CC(C)C[C@@H](C=O)NC(=O)[C@H](CC(C)C)NC(=O)[C@H](CC(C)C)NC(=O)OCc1ccccc1 (Cbz-Leu-Leu-Leu-aldehyde)

— ChEMBL document CHEMBL5352441, “Modulation of FLT3-ITD and CDK9 in acute myeloid leukaemia cells by novel proteolysis targeting chimera (PROTAC)” (2022)
